Source: PubChem BioAssay (NCI)
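Method: 48-hour compound exposure of cells in 96-well plates, five concentrations, linear interpolation of endpoints. Here, GI50 denotes the concentration required for 50% inhibition of growth. Definition used: TGI = concentration required for complete inhibition of growth.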

Tests used:
Assay in all cases: DTP human tumour cell line panel, 48 h
[1] = test system: 786-0 renal
[2] = test system: HT29 colon
[3] = test system: COLO 205 colon
[4] = test system: NCI-H460 lung
[5] = test system: SNB-19 CNS
[6] = test system: HCT-15 colon
[7] = test system: UACC-62 melanoma
[8] = test system: SK-MEL-2 melanoma
[9] = test system: KM12 colon
[10] = test system: A498 renal
[11] = test system: MOLT-4 leukemia
[12] = test system: HOP-92 NSCLC
[13] = test system: SF-268 CNS
[14] = test system: PC-3 prostate
[15] = test system: NCI/ADR-RES ovarian
[16] = test system: UACC-257 melanoma
[17] = test system: HOP-62 NSCLC
[18] = test system: MALME-3M melanoma
[19] = test system: SR leukemia
[20] = test system: NCI-H23 lung
[21] = test system: SK-MEL-5 melanoma
[22] = test system: ACHN renal
[23] = test system: TK-10 renal
[24] = test system: RXF 393 renal
[25] = test system: SF-539 CNS
[26] = test system: UO-31 renal
[27] = test system: A549 NSCLC
[28] = test system: HCC-2998 colon
[29] = test system: BT-549 breast
[30] = test system: M14 melanoma
[31] = test system: OVCAR-5 ovarian
[32] = test system: OVCAR-3 ovarian
[33] = test system: SK-OV-3 ovarian
[34] = test system: HCT-116 colon
[35] = test system: SNB-75 CNS
[36] = test system: OVCAR-4 ovarian
[37] = test system: CAKI-1 renal
[38] = test system: EKVX NSCLC
[39] = test system: SW-620 colon
[40] = test system: MDA-MB-231 breast
[41] = test system: U251 CNS
[42] = test system: DU-145 prostate
[43] = test system: NCI-H226 lung
[44] = test system: MDA-MB-435
[45] = test system: HS 578T breast
[46] = test system: T-47D breast
[47] = test system: SF-295 CNS
[48] = test system: IGROV1 ovarian
[49] = test system: LOX IMVI melanoma
[50] = test system: OVCAR-8 ovarian
[51] = test system: SN12C renal
[52] = test system: RPMI-8226 leukemia
[53] = test system: SK-MEL-28 melanoma
[54] = test system: CCRF-CEM leukemia
[55] = test system: MCF7 breast
[56] = test system: HL-60(TB) leukemia
[57] = test system: K-562 leukemia
[58] = test system: NCI-H522 lung

Cc1c(NC(=S)N/N=C\C(=N/NC(=S)Nc2c(C)n(C)n(-c3ccccc3)c2=O)c2ccccc2)c(=O)n(-c2ccccc2)n1C
TGI [1]: > 100 µM
TGI [2]: > 100 µM
TGI [3]: > 100 µM
TGI [4]: > 100 µM
TGI [5]: > 100 µM
TGI [6]: > 100 µM
TGI [7]: > 100 µM
TGI [8]: > 100 µM
TGI [9]: > 100 µM
TGI [10]: > 100 µM
TGI [11]: > 100 µM
TGI [12]: > 100 µM
TGI [13]: > 100 µM
TGI [14]: > 100 µM
TGI [15]: > 100 µM
TGI [16]: > 100 µM
TGI [17]: > 100 µM
TGI [18]: > 100 µM
TGI [19]: > 100 µM
TGI [20]: > 100 µM
TGI [21]: > 100 µM
TGI [22]: > 100 µM
TGI [23]: > 100 µM
TGI [24]: > 100 µM
TGI [25]: > 100 µM
TGI [26]: > 100 µM
TGI [27]: > 100 µM
TGI [28]: > 100 µM
TGI [29]: > 100 µM
TGI [30]: > 100 µM
TGI [31]: > 100 µM
TGI [32]: > 100 µM
TGI [33]: > 100 µM
TGI [34]: > 100 µM
TGI [35]: > 100 µM
TGI [36]: > 100 µM
TGI [37]: > 100 µM
TGI [38]: > 100 µM
TGI [39]: > 100 µM
TGI [40]: > 100 µM
TGI [41]: > 100 µM
TGI [42]: > 100 µM
TGI [43]: > 100 µM
TGI [44]: > 100 µM
TGI [45]: > 100 µM
TGI [46]: > 100 µM
TGI [47]: > 100 µM

CN1c2ccccc2C(=O)NC12CCN(Cc1ccccc1)CC2
TGI [1]: > 100 µM
TGI [2]: > 100 µM
TGI [48]: > 100 µM
TGI [3]: > 100 µM
TGI [4]: > 100 µM
TGI [5]: > 100 µM
TGI [6]: > 100 µM
TGI [7]: > 100 µM
TGI [9]: > 100 µM
TGI [49]: > 100 µM
TGI [10]: > 100 µM
TGI [11]: > 100 µM
TGI [12]: 98.5 µM
TGI [50]: > 100 µM
TGI [13]: > 100 µM
TGI [15]: > 100 µM
TGI [16]: > 100 µM
TGI [17]: > 100 µM
TGI [18]: > 100 µM
TGI [19]: > 100 µM
TGI [51]: > 100 µM
TGI [20]: > 100 µM
TGI [21]: > 100 µM
TGI [22]: > 100 µM
TGI [23]: > 100 µM
TGI [24]: > 100 µM
TGI [25]: > 100 µM
TGI [26]: > 100 µM
TGI [27]: > 100 µM
TGI [28]: > 100 µM
TGI [30]: > 100 µM
TGI [52]: > 100 µM
TGI [31]: > 100 µM
TGI [33]: > 100 µM
TGI [34]: > 100 µM
TGI [35]: > 100 µM
TGI [36]: > 100 µM
TGI [38]: > 100 µM
TGI [53]: > 100 µM
TGI [39]: > 100 µM
TGI [40]: > 100 µM
TGI [54]: > 100 µM
TGI [41]: > 100 µM
TGI [42]: > 100 µM
TGI [43]: > 100 µM
TGI [44]: > 100 µM
TGI [45]: > 100 µM
TGI [55]: > 100 µM
TGI [56]: > 100 µM
TGI [46]: > 100 µM
TGI [47]: > 100 µM

N#CC1=C(N)N=C(N2CCCCC2)C(C#N)C12Nc1ccccc1S2 (stereo not drawn)
GI50 [1]: 26.5 µM
TGI [1]: 79.2 µM
GI50 [57]: > 100 µM
TGI [57]: > 100 µM
GI50 [2]: 29.8 µM
TGI [2]: > 100 µM
GI50 [48]: 58.9 µM
TGI [48]: > 100 µM
GI50 [3]: 29.3 µM
TGI [3]: 82.6 µM
GI50 [4]: 27 µM
TGI [4]: > 100 µM
GI50 [5]: 41 µM
TGI [5]: > 100 µM
GI50 [6]: 22 µM
TGI [6]: > 100 µM
GI50 [58]: 22.2 µM
TGI [58]: 56.8 µM
GI50 [7]: 16.9 µM
TGI [7]: 49.1 µM
GI50 [8]: 36.4 µM
TGI [8]: 79 µM
GI50 [9]: 25.6 µM
TGI [9]: > 100 µM
GI50 [49]: 20.7 µM
TGI [49]: 51.8 µM
GI50 [11]: > 100 µM
TGI [11]: > 100 µM
GI50 [12]: 26.9 µM
TGI [12]: > 100 µM
GI50 [50]: 38.3 µM
TGI [50]: > 100 µM
GI50 [13]: 18.9 µM
TGI [13]: 67.2 µM
GI50 [14]: 50.5 µM
TGI [14]: > 100 µM
GI50 [15]: 20 µM
TGI [15]: 68.6 µM
GI50 [16]: 20.9 µM
TGI [16]: 51 µM
GI50 [17]: 27.7 µM
TGI [17]: > 100 µM
GI50 [18]: 47.2 µM
TGI [18]: > 100 µM
GI50 [19]: > 100 µM
TGI [19]: > 100 µM
GI50 [51]: 24.8 µM
TGI [51]: > 100 µM
GI50 [20]: 16.7 µM
TGI [20]: 52.8 µM
GI50 [21]: 19.6 µM
TGI [21]: 42.3 µM
GI50 [22]: 27.1 µM
TGI [22]: 76.4 µM
GI50 [23]: 29.6 µM
TGI [23]: > 100 µM
GI50 [24]: 27 µM
TGI [24]: 65.1 µM
GI50 [25]: 30.7 µM
TGI [25]: 75.4 µM
GI50 [26]: 40.8 µM
TGI [26]: > 100 µM
GI50 [27]: 29.5 µM
TGI [27]: > 100 µM
GI50 [29]: 33.3 µM
TGI [29]: > 100 µM
GI50 [30]: 19.1 µM
TGI [30]: 46.8 µM
GI50 [52]: 84 µM
TGI [52]: > 100 µM
GI50 [33]: 39.1 µM
TGI [33]: > 100 µM
GI50 [34]: 23 µM
TGI [34]: > 100 µM
GI50 [35]: 84.1 µM
TGI [35]: > 100 µM
GI50 [36]: 37.9 µM
TGI [36]: > 100 µM
GI50 [38]: 28.7 µM
TGI [38]: 91.1 µM
GI50 [53]: 26.6 µM
TGI [53]: > 100 µM
GI50 [39]: 38.4 µM
TGI [39]: > 100 µM
GI50 [40]: 17.1 µM
TGI [40]: 58.7 µM
GI50 [41]: 17 µM
TGI [41]: > 100 µM
GI50 [42]: 43 µM
TGI [42]: > 100 µM
GI50 [44]: 0.0184 µM
TGI [44]: 14.3 µM
GI50 [55]: 44.9 µM
TGI [55]: > 100 µM
GI50 [56]: 85.4 µM
TGI [56]: > 100 µM
GI50 [46]: 35 µM
TGI [46]: > 100 µM
GI50 [47]: 37.7 µM
TGI [47]: > 100 µM
